Test system: human (tumor) Hif2α (EPAS1) mRNA
Assay: Hif2α knockdown in orthotopic RCC tumor bearing mice, single injection of RNAi trigger-delivery polymer conjugate, RT-qPCR (Table 7)
Assay type: in vivo
Conditions: single tail vein injection, relative to isotonic glucose
How it was run: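 A single intravenous dose of Hif2α RNAi trigger–delivery polymer conjugate, or isotonic glucose vehicle, was given to nude mice with subcapsular A498-SEAP renal tumours (about 5–6 weeks old). At the indicated time, tumour RNA was assayed by biplex TaqMan qPCR against CycA, and relative expression was calculated by ΔΔCT versus vehicle.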

[1] = RNAi trigger 115 μg, polymer 100A 375 μg

AD01554 (antisense TUUCAUGAAAUCGUUACGUTT; sense ACGUAACGAUUUCAUGAAAT; Hif2alpha RNAi agent antisense strand; modified_base 2,4,6,8,10,13,14,16,18 /mod_base = “2′-deoxy-2′-fluoro corresponding nucleoside”; modified_base 3,5,7,9,11,12,15,17,19 /mod_base = “2′-O-methyl corresponding nucleoside”; modified_base 2,3,21 /mod_base = “5′-phosphorothioate corresponding nucleotide”; Hif2alpha RNAi agent sense strand; modified_base 1,3,5,8,9,11,13,15,17,19 /mod_base = “2′-deoxy-2′-fluoro corresponding nucleoside”; modified_base 2,4,6,7,10,12,14,16,18 /mod_base = “2′-O-methyl corresponding nucleoside”; modified_base 20 /mod_base = “3′-3′-linked nucleotide”; modified_base 1)
Relative Expression day 4 (Hif2α mRNA in kidney tumor) [1]: 0.29

AD01555 (antisense TUUCAUGAAAUCGUUACGUTT; sense ACGUAACGAUUUCAUGAAAT; Hif2alpha RNAi agent antisense strand; modified_base 2,4,6,8,10,14,16,18 /mod_base = “2′-deoxy-2′-fluoro corresponding nucleoside”; modified_base 3,5,7,9,11,12,13,15,17,19 /mod_base = “2′-O-methyl corresponding nucleoside”; modified_base 2,3,21 /mod_base = “5′-phosphorothioate corresponding nucleotide”; Hif2alpha RNAi agent sense strand; modified_base 1,3,5,7,8,9,11,13,15,17,19 /mod_base = “2′-deoxy-2′-fluoro corresponding nucleoside”; modified_base 2,4,6,10,12,14,16,18 /mod_base = “2′-O-methyl corresponding nucleoside”; modified_base 20 /mod_base = “3′-3′-linked nucleotide”; modified_base 1)
Relative Expression day 4 (Hif2α mRNA in kidney tumor) [1]: 0.20

AD01654 (antisense TUUCAUGAAAUCGUUACGUTT; sense ACGUAACGAUUUCAUGAAA; Hif2alpha RNAi agent antisense strand; modified_base 2,4,6,8,10,13,14,16,18 /mod_base = “2′-deoxy-2′-fluoro corresponding nucleoside”; modified_base 3,5,7,9,11,12,15,17,19 /mod_base = “2′-O-methyl corresponding nucleoside”; modified_base 2,21 /mod_base = “5′-phosphorothioate corresponding nucleotide”; Hif2alpha RNAi agent sense strand; modified_base 1,3,5,8,9,11,13,15,17,19 /mod_base = “2′-deoxy-2′-fluoro corresponding nucleoside”; modified_base 2,4,6,7,10,12,14,16,18 /mod_base = “2′-O-methyl corresponding nucleoside”; modified_base 2 /mod_base = “5′-phosphorothioate corresponding nucleotide)
Relative Expression day 4 (Hif2α mRNA in kidney tumor) (RNAi trigger 100 μg, polymer 100A 250 μg): 0.185

Source: patent US9976141B2, “Compositions and methods for inhibiting gene expression of Hif2alpha” (Arrowhead Madison Inc., priority 2015, dated 2018)
